The target of assay [1] is T1, AgOrco+AgOR65 (Anopheles gambiae, UniProt Q7QCC7).
T1 construct: expressed in transfected cells
T1 sequence (Q7QCC7 1-478): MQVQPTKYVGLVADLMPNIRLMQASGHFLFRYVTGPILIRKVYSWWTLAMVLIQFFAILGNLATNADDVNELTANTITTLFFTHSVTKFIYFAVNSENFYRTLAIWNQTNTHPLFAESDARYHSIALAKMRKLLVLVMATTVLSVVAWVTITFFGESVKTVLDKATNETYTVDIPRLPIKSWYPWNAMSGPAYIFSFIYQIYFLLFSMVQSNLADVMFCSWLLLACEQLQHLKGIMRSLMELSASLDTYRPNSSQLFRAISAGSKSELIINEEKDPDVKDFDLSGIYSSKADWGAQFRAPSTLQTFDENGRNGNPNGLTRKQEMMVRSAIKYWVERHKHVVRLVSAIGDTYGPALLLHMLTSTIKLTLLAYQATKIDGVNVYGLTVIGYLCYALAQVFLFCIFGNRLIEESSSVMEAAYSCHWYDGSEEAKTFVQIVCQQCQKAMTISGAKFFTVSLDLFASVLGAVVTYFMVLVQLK
Description: Ca2+ imaging, HEK cells expressing AgOrco+AgOR65. The class given is cell-based. Conditions: for EC50: heteromeric OR channels AgOrco+AgOR65, read-out: EC50. From the text:
(§1) For transient transfections, ORs were cloned into pCl (Promega) and transfected into Flp-In™ T-REx™293 cell lines (Invitrogen) with Fu GENE6 (Roche). For the creation of stable cell lines, a cell culture expression vector capable of expressing Orco in conjunction with a conventional OR, pcDNA5/FRT/TO (Invitrogen) was modified to create two individual expression cassettes each under the control of a separate CMV/Tet02 promoter and a BGH poly-adenylation signal. Cells (as above) were transfected with the modified pcDNA5 plasmid along with POG44 (a Flp recombinase expression plasmid) to facilitate site-specific recombination. Stable cell lines were selected using Hygromycin B (Invitrogen). Cells were maintained in DMEM (Invitrogen) supplemented with 10% Tetracycline-free FBS (HyClone) and 15 ng/ml Blasticidin. For fluorometric Ca2+ measurements, stable lines expressing ORs of interest were seeded at 20,000 cells/well in black wall, poly-lysine coated 384-well cell culture plates (Greiner) and treated with […] tetracycline (Sigma) overnight to induce OR expression. Cells were dye-loaded with 1.8 uM Fluo-4 AM (Molecular Probes), 2.5 mM Probenecid (Molecular Probes) in assay buffer (20 mM HEPES, IX HBSS) for 45 minutes at 37° C. in 5% CO2 prior to each assay. Ca^2+ mobilization was assayed in an FDSS6000 (Hamamatsu). Baseline readings were taken for 20 s before automated addition of compound previously diluted in DMSO and assay buffer. Ratios were described as Maximum/Minimum response and each response was normalized to the maximum responder.
For VUAA0, a single methyl from the para position of the aniline ring (compound VUAA0, FIG. 44) in the VUAA1 structure was removed. […] In VUAA0.5, unsaturation was introduced at the para position of the aniline ring (VUAA0.5, FIG. 44). […] In VUAA2, the ethyl group of the aniline ring in VUAA1 was replaced with an isopropyl group (VUAA2, FIG. 44).

Assay [2] addresses T2, AgORco+AgOR48 (Anopheles gambiae, UniProt Q7QCC7).
T2 construct: expressed in transfected cells
T2 sequence (Q7QCC7 1-478): T1 sequence (Q7QCC7 1-478)
Briefly: Ca2+ imaging, HEK cells expressing AgORco+AgOR48. It counts as cell-based. Conditions: AgORco co-expressed with AgOR48; read-out: EC50.
Source text: as §1
The ability of VUAA1 and its analogs to agonize representative ORco proteins from dipteran (Anopheles gambiae, AgORco), lepidopteran (Heliothis virescens, HvORco) and hymenopteran (Harpegnathos saltator, HsORco) orders was tested. […] Furthermore, the hierarchy of VUAA series potency was the same, irrespective of whether AgORco was co-expressed with AgOR65 or AgOR48 tuning ORs (FIG. 45). Without wishing to be bound by a particular theory, odorant ligands are thought to activate the complex via interaction with the tuning ORx and thereby affect ORco/ORx channel properties. […] These findings indicate VUAA-class OR co-modulators are viable compounds for further development as broad-spectrum insect control strategies, and VUAA4 can provide an advance in the pharmacological profile of VUAA-based compounds.

The subject of assay [3] is An. gambiae early 4th instar larvae. Briefly: Larval mosquito movement assay (Daniovision-Ethovision). The class given is in vivo, Anopheles gambiae. To be noted: for larval behavioral (movement) response: compared with DMSO controls or VUAA1; for threshold concentration for increased larval movement: movements over 5-minute period. The method, then:
Next, the agonist activity of the VUAA compound class was tested to establish the involvement of AgORs in mediating larval ortho and klinokinesis in response to a series of semiochemicals using larval-stage An. gambiae mosquitoes. Mosquito larvae are aquatic, thus compounds can be delivered to individual early 4th instar larvae regardless of volatility. The assay currently utilizes 6-well plates and the Daniovision-Ethovision platform (Noldus Inc.) to simultaneously record and analyze 6 larvae, thereby providing modest rates of throughput and a high degree of reproducibility. In these assays, larval movements are automatically quantified over 5-minute period and control larvae consistently move the same number of times in the presence or absence of 0.1% DMSO (p=0.80, n=31) (FIGS. 42-43). Furthermore, the effects of the widely-used synthetic insect repellent N, N-diethyl-meta-toluamide (DEET) was tested and DEET was also observed to increase larval movements at and above a threshold concentration of 5×10^−4M (p=0.013, n=27) (FIGS. 42-43).

For assay [4], the target named is T3, AgORco+AgOR10 (Anopheles gambiae, UniProt Q7QCC7).
T3 construct: expressed in transfected cells
T3 sequence (Q7QCC7 1-478): T1 sequence (Q7QCC7 1-478)
Briefly: Fluo-4 Ca2+ imaging, HEK293 cells expressing Orco+AgOR10. It counts as cell-based. To be noted: for Orco 10 + Orco Potentiator % increase: potentiator mode; for Orco 10 + Orco Angatonist % Reduction: antagonist mode. The arrangement: Orco 10 + Orco Angatonist % Reduction / Orco 10 + Orco Agonist % of control: concentration or dose not given beside the values.
Source text: as §1
As part of an ongoing, cell based calcium imaging screen for novel small-molecule modulators of AgORs that might disrupt olfactory-driven mosquito behaviors (Rinker et al manuscript in preparation), the inventors identified a number of compounds that activated AgOR10+AgORco-expressing human embryonic kidney (HEK293) cells. One of these compounds, (FIG. 3 A) denoted here as VUAA1, elicited activity consistent with allosteric agonism and was pursued for its novel properties. The identity of VUAA1 was verified using high-resolution mass spectrometry (HRMS) as well as ^1H and ^13C NMR. […] As AgORco was the common element among these functional responses, the inventors postulated that VUAA1 was a potential AgORco agonist.

In assay [5] the target is T4, Orco 28 + Orco (Anopheles gambiae, UniProt Q7QCC7).
T4 construct: expressed in transfected cells
T4 sequence (Q7QCC7 1-478): T1 sequence (Q7QCC7 1-478)
Briefly: Orco 28 + Orco: agonist / antagonist / potentiator screen (Table 1). The class given is cell-based. To be noted: for Orco 28 + Orco Potentiator % increase: potentiator mode; for Orco 28 + Orco Antagonist % Reduction: antagonist mode. The method, then: (§2) The activity against insect odorant sensory receptors was evaluated for various disclosed compounds, and the data were collected in Table 1.

Assay [6] concerns the target T4, Orco 28 + Orco. Description: Ca2+ imaging, cells expressing Orco + OR28 (Table 1 head "Orco 28 + Orco"). Conditions: for Orco 28 + Orco Potentiator % increase: potentiator mode; for Orco 28 + Orco Antagonist % Reduction: antagonist mode. The class given is cell-based. The method, then:
as §2

As for `CC(C)c1ccc(NC(=O)CSc2nnc(-c3ccncc3)n2C2CC2)cc1` [VUAA4, 2-((4-cyclopropyl-5-(pyridin-4-yl)-4H-1,2,4-triazol-3-yl)thio)-N-(4-isopropylphenyl)acetamide], in assay [1] (AgOrco+AgOR65), the “improvement in agonist potency compared to VUAA1” value is recorded as 10 fold and the “maximum response relative to earlier VUAA compounds” value was “additional improvement in the maximum response when compared to VUAA1”. The EC50 (commonly the concentration needed to bring the measured effect to its halfway point) in assay [1] was 2.1 µM. In assay [2], the EC50 was 1.7 µM. Moreover, in assay [3] (10^−5M), the “larval movement at the highest concentration” value was “Reduced larval movement”. Moreover, the larval movement response entry in assay [3] (10^−8M) is given as “absence of response”. Moreover, in assay [3], the “larval behavioral (movement) response” value is “higher levels of movement” and the threshold concentration for increased larval movement was found to be 1 nM. Further, the “lower response threshold compared to VUAA1” value in assay [3] (in vivo) came to 5 fold.

Consider `CCn1c(SCC(=O)C(C)(C)C)nnc1-c1cccnc1`, for which the “Orco 10 + Orco Potentiator % increase” value in assay [4] (10 + Orco) was found to be 12.1%. The “Orco 28 + Orco Potentiator % increase” value in assay [5] is 17.24%.

For `Cn1c(SCC(=O)Nc2ccc(F)cc2)nnc1-c1cccnc1`, the “Orco 28 + Orco Antagonist % Reduction” value in assay [5] worked out at 11.09%.

For the compound `O=C(CSc1nnc(-c2cccnc2)n1CCc1ccccc1)NCc1ccccc1`, the “Orco 28 + Orco Potentiator % increase” value in assay [6] worked out at 15.9%.

Consider `O=C(CSc1nnc(-c2cccnc2)n1Cc1ccccc1)Nc1ccc(F)cc1`, for which the “Orco 28 + Orco Potentiator % increase” value in assay [6] came to 16.12%.

On to `CCOc1ccccc1-n1c(SCC(N)=O)nnc1-c1cccnc1`, for which the “Orco 28 + Orco Potentiator % increase” value in assay [6] is 14.71%.

`NC(=O)CSc1nnc(-c2cccnc2)n1-c1ccccc1`: in assay [6], the “Orco 28 + Orco Potentiator % increase” value is given as 15.18%.

Turning to `Cn1c(SCC(=O)Nc2ccc(Br)cc2)nnc1-c1cccnc1`, the “Orco 28 + Orco Potentiator % increase” value in assay [5] is given as 11.23%.

Consider `CCN(CC)C(=O)c1cccc(C)c1` [DEET, N, N-diethyl-meta-toluamide, reference compound], for which the “threshold concentration for increased larval movement” value in assay [3] amounted to 500000 nM.

Turning to `Cc1ccc(NC(=O)CSc2nnc(-c3cccnc3)n2C)c(C)c1`, the “Orco 28 + Orco Potentiator % increase” value in assay [5] was determined as 12.63%.

As to `C=Cc1ccc(NC(=O)CSc2nnc(-c3cccnc3)n2CC)cc1` [VUAA0.5, 2-((4-ethyl-5-(pyridin-3-yl)-4H-1,2,4-triazol-3-yl)thio)-N-(4-vinylphenyl)acetamide], in assay [1], the EC50 amounted to 110 µM. Further, the “larval behavioral (movement) response” value in assay [3] was “comparable to DMSO controls”.

`COC(=O)c1ccccc1NC(=O)CSc1nnc(-c2cccnc2)n1C`: in assay [4] (10 + Orco), the “Orco 10 + Orco Potentiator % increase” value stood at 15.15%. For the same compound, in assay [5], the “Orco 28 + Orco Potentiator % increase” value was found to be 18.02%.

Take `CCc1cccc(CC)c1-n1c(SCn2nnc3ccccc3c2=O)nnc1-c1cccnc1`: in assay [4] (Orco 10 + Orco), the “Orco 10 + Orco Angatonist % Reduction” value amounted to 25.00%. The “Orco 28 + Orco Antagonist % Reduction” value in assay [6] was 22.91%.

Consider `Cc1cc(C)c(C(=O)CSc2nnc(-c3cccnc3)n2C)c(C)c1`, for which the “Orco 28 + Orco Antagonist % Reduction” value in assay [5] is 18.21%.

As to `CC(=O)n1ccc2ccc(C(=O)CSc3nnc(-c4cccnc4)n3C)cc21`, the “Orco 28 + Orco Antagonist % Reduction” value in assay [5] is listed as 13.76%.

Turning to `CCn1c(SCc2nc3ccccc3[nH]2)nnc1-c1cccnc1`, the “Orco 10 + Orco Potentiator % increase” value in assay [4] (10 + Orco) came to 7.5%. The “Orco 28 + Orco Potentiator % increase” value in assay [5] is 15.1%.

As for `CCn1c(SCC(=O)Nc2ccc(C)cc2)nnc1-c1cccnc1` [VUAA0, 2-((4-ethyl-5-(pyridin-3-yl)-4H-1,2,4-triazol-3-yl)thio)-N-(p-tolyl)acetamide], the EC50 in assay [1] was found to be 3400 µM. Moreover, the “larval behavioral (movement) response” value in assay [3] is “lower”.

Regarding `CCn1c(SCC(=O)Nc2ccc(C(C)C)cc2)nnc1-c1cccnc1` [VUAA2, 2-((4-ethyl-5-(pyridin-3-yl)-4H-1,2,4-triazol-3-yl)thio)-N-(4-isopropylphenyl)acetamide], the EC50 in assay [1] was found to be 9.2 µM. In addition, the “larval behavioral (movement) response” value in assay [3] is on record as “not observed to elicit larval responses greater than VUAA1”.

Consider `CCn1c(SCC(=O)NCc2ccco2)nnc1-c1cccnc1`, for which, in assay [4] (10 + Orco), the “Orco 10 + Orco Potentiator % increase” value is listed as 10.23%. The “Orco 28 + Orco Antagonist % Reduction” value in assay [5] came out at 10.89%.

Regarding `Clc1ccc(-n2c(SC/C=C/c3ccccc3)nnc2-c2cccnc2)cc1`, the “Orco 10 + Orco Potentiator % increase” value in assay [4] (Orco 10 + Orco) was determined as 48.08%. Moreover, the “Orco 28 + Orco Antagonist % Reduction” value in assay [6] is 20.56%.

With `CCOc1ccccc1-n1c(SCC(=O)c2cccc([N+](=O)[O-])c2)nnc1-c1cccnc1`, the “Orco 10 + Orco Angatonist % Reduction” value in assay [4] (Orco 10 + Orco) worked out at 22.28%. Moreover, the “Orco 28 + Orco Antagonist % Reduction” value in assay [6] turned out to be 25.53%.

`O=C(CSc1nnc(-c2cccnc2)n1-c1ccc(Br)cc1)c1c[nH]c2ccccc12`: in assay [6], the “Orco 28 + Orco Potentiator % increase” value is listed as 19.9%.

For `C=CCn1c(SCc2cc3c(cc2Cl)OCO3)nnc1-c1cccnc1`, the “Orco 28 + Orco Antagonist % Reduction” value in assay [5] was determined as 16.91%.

For the origin of these results see patent publication US11484032B2, “Compositions for inhibition of insect sensing” (Vanderbilt University, priority 2011, dated 2022).
